*1 amine or outer side, *2 acyl side, *3 side chain or, on linkers, in order; H or OH if unused. Where a SMILES comes first, the peptide text is derived from it. Side-chain parts run from the residue outwards. [ ]: non-standard residue; d: D form. The star is where a group is joined. C18 diacid = O=C(O)CCCCCCCCCCCCCCCCC(=O)*; γGlu = O=C(O)[C@H](CCC(=O)[*:2])N[*:1]; AEEA = NCCOCCOCC(=O)O; Aib = CC(C)(N)C(=O)O
Target: T1, human glucagon-like peptide 1 receptor (GLP-1R) (Homo sapiens, UniProt P43220)
T1 construct: expressed in transfected cells
Test: GLP-1 receptor efficacy assay (cAMP AlphaScreen, CHO cells)
Assay type: cell-based
Conditions: for Ratio GLP-1/Glucagon: EC50 [GLP-1R] / EC50 [Glucagon-R], human receptors in CHO-K1
Source text: The cDNA encoding either the human glucagon receptor (Glucagon-R) (primary accession number P47871) or the human glucagon-like peptide 1 receptor (GLP-1R) (primary accession number P43220) were synthesized and cloned into a mammalian expression vector containing a Zeocin resistance marker.
The mammalian expression vectors encoding the Glucagon-R or the GLP-1-R were transfected into Chinese hamster ovary (CHO) cells by the Attractene method. Stably expressing clones were obtained by Zeocin selection (250 μg/mL) upon limited dilution of cells resistant to the selection pressure. Glucagon-R and GLP-1-R cell clones expressing were picked, propagated and tested in the Glucagon-R and GLP-1-R efficacy assays as described below. One Glucagon-R expressing clone and one GLP-1-R expressing clone were chosen for compound profiling.
CHO cells expressing the human Glucagon-R, or human GLP-1-R were seeded 24 hours prior to the assay at 30,000 cells per well in 96-well microtiter plates in culture in 100 μl growth medium. On the day of analysis, growth medium was removed and the cells were washed once with 200 μl of assay buffer (Krebs-Ringer-buffer—KRBH). The buffer was removed and the cells were incubated for 15 min at room temperature in 10 μl KRBH (KRBH+10 mM HEPES, 5 mM NaHCO3, 0.1% (V/V) BSA) with 0.1 mM IBMX in deionized water containing increasing concentrations of test peptides. The reaction was stopped by the addition of lysis buffer (0.1% w/v BSA, 5 mM HEPES, 0.3% v/v Tween-20). After cell lysis for 10 min at room temperature, lysates were transferred to 384-well plates and 10 μl of acceptor/donorbead mixture as contained in the AlphaScreen™ cAMP Functional Assay Kit was added. After one hour of incubation at room temperature in the dark, the cAMP content was determined applying the AlphaScreen™ cAMP Functional Assay Kit from Perkin-Elmer according to manufacturer instructions. EC50 and relative efficacies compared to reference compounds (glucagon and GLP-1) were calculated applying computer aided curve fitting. The GLP-1/glucagon ratio is calculated as defined earlier.

T1 sequence (P43220 24-463): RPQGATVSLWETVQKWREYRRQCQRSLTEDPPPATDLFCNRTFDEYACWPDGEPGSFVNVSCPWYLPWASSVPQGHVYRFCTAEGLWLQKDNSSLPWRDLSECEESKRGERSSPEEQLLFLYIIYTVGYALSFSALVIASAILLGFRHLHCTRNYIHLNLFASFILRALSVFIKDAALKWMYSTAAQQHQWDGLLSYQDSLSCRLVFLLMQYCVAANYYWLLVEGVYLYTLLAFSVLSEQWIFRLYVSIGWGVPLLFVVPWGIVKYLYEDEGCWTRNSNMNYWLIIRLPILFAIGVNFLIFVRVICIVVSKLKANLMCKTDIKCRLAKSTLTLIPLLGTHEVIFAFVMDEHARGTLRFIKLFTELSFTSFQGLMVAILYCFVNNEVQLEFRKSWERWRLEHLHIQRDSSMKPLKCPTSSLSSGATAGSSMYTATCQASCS

Row | Ratio GLP-1/Glucagon | EC50 (cAMP formation, CHO cells expressing human GLP-1-R, 15 min, read-out: EC50 hGLP-1R CHO-K1) | Structure (SMILES)
1 | 3.25 |  | CC[C@H](C)[C@H](NC(=O)[C@H](Cc1ccccc1)NC(=O)[C@H](CC(=O)O)NC(=O)[C@H](CCCCN)NC(=O)[C@H](C)NC(=O)[C@H](C)NC(=O)[C@H](CCCNC(=N)N)NC(=O)[C@H](CCCCNC(=O)CNC(=O)CNC(=O)[C@H](CO)NC(=O)CNC(=O)[C@H](CO)NC(=O)CNC(=O)CC[C@H](NC(=O)CCCCCCCCCCCCCCCCC(=O)O)C(=O)O)NC(=O)[C@H](CCC(=O)O)NC(=O)[C@H](CC(C)C)NC(=O)[C@H](Cc1ccc(O)cc1)NC(=O)[C@H](CCCCN)NC(=O)[C@H](CO)NC(=O)[C@H](Cc1ccc(O)cc1)NC(=O)[C@H](CC(=O)O)NC(=O)[C@H](CO)NC(=O)[C@@H](NC(=O)[C@H](Cc1ccccc1)NC(=O)[C@@H](NC(=O)CNC(=O)[C@H](CCC(N)=O)NC(=O)C(C)(C)NC(=O)[C@@H](N)Cc1c[nH]cn1)[C@@H](C)O)[C@@H](C)O)C(=O)N[C@@H](CCC(=O)O)C(=O)N[C@@H](Cc1c[nH]c2ccccc12)C(=O)N[C@@H](CC(C)C)C(=O)N[C@@H](CCC(=O)O)C(=O)N[C@@H](CO)C(=O)N[C@@H](C)C(N)=O [Compound 6, H-H-Aib-QGTFTSDYSKYLE-K([17-carboxy-heptadecanoyl]-isoGlu-GSGSGG)-RAAKDFIEWLESA-NH2]
2 | 8.82 | 970 pM | CC[C@H](C)[C@H](NC(=O)[C@H](Cc1ccccc1)NC(=O)[C@H](CC(=O)O)NC(=O)[C@H](CCCCN)NC(=O)[C@H](C)NC(=O)[C@H](C)NC(=O)[C@H](CCCNC(=N)N)NC(=O)[C@H](CCCCNC(=O)CNC(=O)CNC(=O)[C@H](CO)NC(=O)CNC(=O)[C@H](CO)NC(=O)CNC(=O)CC[C@H](NC(=O)CCCCCCCCCCCCCCCCC(=O)O)C(=O)O)NC(=O)[C@H](CC(=O)O)NC(=O)[C@H](CC(C)C)NC(=O)[C@H](Cc1ccc(O)cc1)NC(=O)[C@H](CCCCN)NC(=O)[C@H](CO)NC(=O)[C@H](Cc1ccc(O)cc1)NC(=O)[C@H](CC(=O)O)NC(=O)[C@H](CO)NC(=O)[C@@H](NC(=O)[C@H](Cc1ccccc1)NC(=O)[C@@H](NC(=O)CNC(=O)[C@H](CCC(N)=O)NC(=O)C1(NC(=O)[C@@H](N)Cc2c[nH]cn2)CCC1)[C@@H](C)O)[C@@H](C)O)C(=O)N[C@@H](CCC(=O)O)C(=O)N[C@@H](Cc1c[nH]c2ccccc12)C(=O)N[C@@H](CC(C)C)C(=O)N[C@@H](CCC(=O)O)C(=O)N[C@@H](CO)C(=O)N[C@@H](C)C(N)=O [Compound 7, H-H-Ac4c-QGTFTSDYSKYLD-K([17-carboxy-heptadecanoyl]-isoGlu-GSGSGG)-RAAKDFIEWLESA-NH2]
3 | 2.58 |  | CC[C@H](C)[C@H](NC(=O)[C@H](Cc1ccccc1)NC(=O)[C@H](CC(=O)O)NC(=O)[C@H](Cc1c[nH]cn1)NC(=O)[C@H](C)NC(=O)[C@H](C)NC(=O)[C@H](CCCNC(=N)N)NC(=O)[C@H](CCCCNC(=O)COCCOCCNC(=O)COCCOCCNC(=O)CC[C@H](NC(=O)CCCCCCCCCCCCCCCCC(=O)O)C(=O)O)NC(=O)[C@H](CCC(=O)O)NC(=O)[C@H](CC(C)C)NC(=O)[C@H](Cc1ccc(O)cc1)NC(=O)[C@H](CCCCN)NC(=O)[C@H](CO)NC(=O)[C@H](Cc1ccc(O)cc1)NC(=O)[C@H](CC(=O)O)NC(=O)[C@H](CO)NC(=O)[C@@H](NC(=O)[C@H](Cc1ccccc1)NC(=O)[C@@H](NC(=O)CNC(=O)[C@H](CCC(N)=O)NC(=O)C(C)(C)NC(=O)[C@@H](N)Cc1c[nH]cn1)[C@@H](C)O)[C@@H](C)O)C(=O)N[C@@H](CCC(=O)O)C(=O)N[C@@H](Cc1c[nH]c2ccccc12)C(=O)N[C@@H](CC(C)C)C(=O)N[C@@H](CCC(=O)O)C(=O)N[C@@H](CO)C(=O)N[C@@H](C)C(N)=O [Compound 8, H-H-Aib-QGTFTSDYSKYLE-K([17-carboxy-heptadecanoyl]-isoGlu-Peg3-Peg3)-RAAHDFIEWLESA-NH2] (H-H[Aib]QGTFTSDYSKYLEK([AEEA-AEEA-γGlu-C18 diacid])RAAHDFIEWLESA-NH2)
4 | 2.00 |  | CC[C@H](C)[C@H](NC(=O)[C@H](Cc1ccccc1)NC(=O)[C@H](CC(=O)O)NC(=O)[C@H](CCCCN)NC(=O)[C@H](C)NC(=O)[C@H](C)NC(=O)[C@H](CCCCNC(=O)CC[C@H](NC(=O)CCCCCCCCCCCCCCCCC(=O)O)C(=O)O)NC(=O)[C@H](CCC(=O)O)NC(=O)[C@H](CC(=O)O)NC(=O)[C@H](CC(C)C)NC(=O)[C@H](Cc1ccc(O)cc1)NC(=O)[C@H](CCCCN)NC(=O)[C@H](CO)NC(=O)[C@H](Cc1ccc(O)cc1)NC(=O)[C@H](CC(=O)O)NC(=O)[C@H](CO)NC(=O)[C@@H](NC(=O)[C@H](Cc1ccccc1)NC(=O)[C@@H](NC(=O)CNC(=O)[C@H](CCC(N)=O)NC(=O)C1(NC(=O)[C@@H](N)Cc2c[nH]cn2)CCC1)[C@@H](C)O)[C@@H](C)O)C(=O)N[C@@H](CCC(=O)O)C(=O)N[C@@H](Cc1c[nH]c2ccccc12)C(=O)N[C@@H](CC(C)C)C(=O)N[C@@H](CCC(=O)O)C(=O)N[C@@H](CO)C(=O)N[C@@H](C)C(N)=O [Compound 11, H-H-Ac4c-QGTFTSDYSKYLDE-K([17-carboxy-heptadecanoyl]-isoGlu)-AAKDFIEWLESA-NH2]
5 | 0.63 |  | CC[C@H](C)[C@H](NC(=O)[C@H](Cc1ccccc1)NC(=O)[C@H](CC(=O)O)NC(=O)[C@H](CCCCN)NC(=O)[C@H](C)NC(=O)[C@H](C)NC(=O)[C@H](CCCNC(=N)N)NC(=O)[C@H](CCC(=O)O)NC(=O)[C@H](CC(=O)O)NC(=O)[C@H](CC(C)C)NC(=O)[C@H](Cc1ccc(O)cc1)NC(=O)[C@H](CCCCN)NC(=O)[C@H](CO)NC(=O)[C@H](Cc1ccc(O)cc1)NC(=O)[C@H](CC(=O)O)NC(=O)[C@H](CO)NC(=O)[C@@H](NC(=O)[C@H](Cc1ccccc1)NC(=O)[C@@H](NC(=O)CNC(=O)[C@H](CCC(N)=O)NC(=O)C1(NC(=O)[C@@H](N)Cc2c[nH]cn2)CCC1)[C@@H](C)O)[C@@H](C)O)C(=O)N[C@@H](CCCCNC(=O)CNC(=O)CNC(=O)[C@H](CO)NC(=O)CNC(=O)[C@H](CO)NC(=O)CNC(=O)CC[C@H](NC(=O)CCCCCCCCCCCCCCCCC(=O)O)C(=O)O)C(=O)N[C@@H](Cc1c[nH]c2ccccc12)C(=O)N[C@@H](CC(C)C)C(=O)N[C@@H](CCC(=O)O)C(=O)N[C@@H](CO)C(=O)N[C@@H](C)C(N)=O [Compound 13]
6 | 0.65 |  | CC[C@H](C)[C@H](NC(=O)[C@H](Cc1ccccc1)NC(=O)[C@H](CC(=O)O)NC(=O)[C@H](CCCCN)NC(=O)[C@H](C)NC(=O)[C@H](C)NC(=O)[C@H](CCCNC(=N)N)NC(=O)[C@H](CCC(=O)O)NC(=O)[C@H](CC(=O)O)NC(=O)[C@H](CC(C)C)NC(=O)[C@H](Cc1ccc(O)cc1)NC(=O)[C@H](CCCCN)NC(=O)[C@H](CO)NC(=O)[C@H](Cc1ccc(O)cc1)NC(=O)[C@H](CC(=O)O)NC(=O)[C@H](CO)NC(=O)[C@@H](NC(=O)[C@H](Cc1ccccc1)NC(=O)[C@@H](NC(=O)CNC(=O)[C@H](CCC(N)=O)NC(=O)C1(NC(=O)[C@@H](N)Cc2c[nH]cn2)CCC1)[C@@H](C)O)[C@@H](C)O)C(=O)N[C@@H](CCC(=O)O)C(=O)N[C@@H](Cc1c[nH]c2ccccc12)C(=O)N[C@@H](CC(C)C)C(=O)N[C@@H](CCC(=O)O)C(=O)N[C@@H](CCCCNC(=O)CNC(=O)CNC(=O)[C@H](CO)NC(=O)CNC(=O)[C@H](CO)NC(=O)CNC(=O)CC[C@H](NC(=O)CCCCCCCCCCCCCCCCC(=O)O)C(=O)O)C(=O)N[C@@H](C)C(N)=O [Compound 15]
